Test [1] relates to Streptococcus. The experiment in a line: Group A Streptococcus viability loss, dose response, counter-screen for streptokinase expression inhibitor project, luminescence, BacTiterGlo (AID 1915).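 Further: potency for reduction of bacterial viability or growth.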 The format is functional, organism-based. (In general: A counterscreen serves to expose hits that act by an unwanted route or on another target.)
In test [2] the target is Serine/threonine-protein phosphatase PP1-alpha catalytic subunit (Homo sapiens, UniProt P62136). The experiment in a line: PP1 phosphatase inhibitors, dose response, biochemical, fluorescence (AID 2403).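 Further: phosphatase turnover of OMFP into fluorescent 3-O-methylfluorescein.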
For test [3], the target named is T1, Streptokinase A (Streptococcus pyogenes serotype M1, UniProt P10520).
T1 sequence (P10520 whole entry): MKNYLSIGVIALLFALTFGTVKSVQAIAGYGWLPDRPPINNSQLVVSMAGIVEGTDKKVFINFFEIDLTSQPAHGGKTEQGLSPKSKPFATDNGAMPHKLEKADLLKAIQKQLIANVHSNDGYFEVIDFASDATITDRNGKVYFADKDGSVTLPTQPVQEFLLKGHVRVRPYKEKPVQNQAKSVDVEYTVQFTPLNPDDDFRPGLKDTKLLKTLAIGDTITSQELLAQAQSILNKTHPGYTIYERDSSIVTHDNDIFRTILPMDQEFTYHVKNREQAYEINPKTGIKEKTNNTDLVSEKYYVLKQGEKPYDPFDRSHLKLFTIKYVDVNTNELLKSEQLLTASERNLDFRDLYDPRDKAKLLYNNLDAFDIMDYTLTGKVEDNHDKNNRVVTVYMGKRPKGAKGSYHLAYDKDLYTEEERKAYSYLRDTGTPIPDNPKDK
Briefly: S. pyogenes streptokinase expression inhibitors, potency, dose response, plasminogen activation absorbance, OD405 (AID 1914).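 Further: secreted streptokinase activity via plasminogen activation per viability signal from cell pellet.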 The class given is functional, Streptococcus pyogenes M1 GAS.

Test [4] concerns the target Serine/threonine-protein phosphatase (Homo sapiens, UniProt Q9BPW0). Briefly: Counterscreen for inhibitors of PP1: fluorescence-based biochemical high throughput dose response assay to identify inhibitors of Protein Phosphatase 5 (PP5). [Related pubchem assays: 2034 (Summary (PP5 inhibitors)), 1987 (PP5 inhibitors in singlate), 2235 (PP1 inhibitors in singlate)].
The subject of test [5] is Streptococcus sp. 'group A'. Briefly: growth inhibition of control SK(-) GAS strain, dose response, counter-screen for streptokinase expression inhibitor project, luminescence, kanamycin, BacTiterGlo, confirmation (AID 1900). The format is functional, organism-based.
Test [6] addresses T2, Estrogen receptor beta (Homo sapiens, UniProt Q92731). The experiment in a line: ERβ–SRC-3 coactivator interaction inhibitors, confirmation, orthogonal assay, biochemical, ELISA, streptavidin-HRP readout (AID 1060). Background: An ELISA detects its analyte on a solid surface through an enzyme-linked reagent.
In test [7] the target is T2, Estrogen receptor beta.
Test [8] addresses NS3 (Hepatitis C virus, UniProt A3EZJ3). Briefly: PubChem AID 2173. Further details: species or system Hepacivirus hominis.
For test [9], the target named is T3, Estrogen receptor (Homo sapiens, UniProt P03372).
T3 sequence (P03372 whole entry): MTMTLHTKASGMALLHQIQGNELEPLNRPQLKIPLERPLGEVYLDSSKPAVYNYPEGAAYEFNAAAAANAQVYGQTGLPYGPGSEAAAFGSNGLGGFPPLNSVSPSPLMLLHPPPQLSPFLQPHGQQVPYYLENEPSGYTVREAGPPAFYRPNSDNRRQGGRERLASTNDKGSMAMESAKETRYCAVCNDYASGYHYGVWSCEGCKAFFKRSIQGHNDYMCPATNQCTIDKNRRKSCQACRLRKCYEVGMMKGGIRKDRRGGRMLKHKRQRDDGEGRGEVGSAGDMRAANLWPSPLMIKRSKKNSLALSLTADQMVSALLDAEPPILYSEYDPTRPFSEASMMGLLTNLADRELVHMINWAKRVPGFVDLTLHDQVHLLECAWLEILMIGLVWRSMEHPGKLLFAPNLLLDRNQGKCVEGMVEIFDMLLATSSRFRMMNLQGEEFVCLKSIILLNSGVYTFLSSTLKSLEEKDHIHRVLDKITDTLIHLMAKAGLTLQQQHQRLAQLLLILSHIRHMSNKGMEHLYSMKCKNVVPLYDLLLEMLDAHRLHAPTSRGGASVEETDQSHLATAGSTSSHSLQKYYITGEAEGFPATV

The target in test [10] is Induced myeloid leukemia cell differentiation protein Mcl-1 (Homo sapiens, UniProt Q07820). The format is functional.
Test [11] in a line: growth suppression of PTEN-null colon cells, dose response, cell-based, HCT116 PTEN knockout (AID 1047).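 Further: HCT116 colon tumor cells with PTEN knocked out; cells exposed to compound for 60 hours before readout; potency for loss of cell viability measured by luminescence.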 The format is functional.
A short description of test [12]: growth suppression of beta-catenin-knockout colon cells, dose response, cell-based, HCT116, human colon tumor (AID 1045).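 Further: HCT116 colon tumor cells with beta catenin knocked out; cells exposed to compound for 60 hours.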 The class given is functional.
Test [13] deals with T4, Neuropeptide Y receptor type 2 (Homo sapiens, UniProt P49146).
T4 sequence (P49146 whole entry): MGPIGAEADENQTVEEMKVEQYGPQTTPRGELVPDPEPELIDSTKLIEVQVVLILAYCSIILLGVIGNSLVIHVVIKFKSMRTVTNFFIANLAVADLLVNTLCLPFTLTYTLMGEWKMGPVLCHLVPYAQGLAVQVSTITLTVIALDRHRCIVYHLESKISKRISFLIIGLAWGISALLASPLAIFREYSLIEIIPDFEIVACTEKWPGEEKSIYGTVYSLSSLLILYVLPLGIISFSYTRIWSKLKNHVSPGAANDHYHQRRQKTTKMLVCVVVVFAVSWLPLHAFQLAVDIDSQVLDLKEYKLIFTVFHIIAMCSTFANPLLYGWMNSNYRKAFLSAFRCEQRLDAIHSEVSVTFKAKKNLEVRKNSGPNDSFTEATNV
The class given is functional, cell-based.

Test [14] addresses T5, Neuropeptide Y receptor type 1 (Homo sapiens, UniProt P25929).
T5 sequence (P25929 whole entry): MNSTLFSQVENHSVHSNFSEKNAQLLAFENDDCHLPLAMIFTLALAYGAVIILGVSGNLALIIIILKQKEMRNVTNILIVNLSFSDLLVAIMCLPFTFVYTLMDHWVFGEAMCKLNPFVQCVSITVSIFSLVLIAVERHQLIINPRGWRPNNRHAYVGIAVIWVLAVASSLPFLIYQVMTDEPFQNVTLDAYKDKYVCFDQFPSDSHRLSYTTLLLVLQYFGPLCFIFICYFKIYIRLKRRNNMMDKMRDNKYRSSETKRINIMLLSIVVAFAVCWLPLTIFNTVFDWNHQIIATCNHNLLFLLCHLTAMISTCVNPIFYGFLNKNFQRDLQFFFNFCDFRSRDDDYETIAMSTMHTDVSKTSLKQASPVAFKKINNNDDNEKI
The format is functional.

Test [15] deals with Epstein-Barr nuclear antigen 1 (Epstein-Barr virus (strain B95-8) (HHV-4) (Human herpesvirus 4), UniProt P03211). The experiment in a line: EBNA-1 inhibitors, dose response, biochemical, fluorescence polarization, 1536-well (AID 2381).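 Further: fluorescence polarization of a Cy5 DNA probe bound by EBNA-1 protein.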 Also noted: species or system human gammaherpesvirus 4. (Polarisation of emitted light reports the rotation of a fluorescent probe.)
In test [16] the target is Lytic switch protein BZLF1 (Epstein-Barr virus (strain B95-8) (HHV-4) (Human herpesvirus 4), UniProt P03206). The experiment in a line: EBV ZTA inhibitors, dose response, counter-screen for EBNA-1 inhibitor project, biochemical, fluorescence polarization, Epstein-Barr virus, 1536-well (AID 2377).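 Further: fluorescence polarization of Cy5-labelled ZRE DNA probe bound by purified Zta.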 Also noted: species or system human gammaherpesvirus 4.
Test [17] concerns the target T6, Heat shock 70 kDa protein 1A (Homo sapiens, UniProt P0DMV8). Briefly: Hsp70 inhibitors, biochemical, TR-FRET (AID 786).
The target of test [18] is T6, Heat shock 70 kDa protein 1A. The experiment in a line: Hsp70 inhibitors, probe displacement, primary screen, biochemical, fluorescence polarization (AID 583).
The target of test [19] is T4, Neuropeptide Y receptor type 2. The experiment in a line: NPY-Y2 antagonist potency, selectivity check, dose response, counter-screen for NPY-Y1 antagonist project, cell-based (AID 1278). The class given is functional.
Test [20] deals with T5, Neuropeptide Y receptor type 1. The experiment in a line: NPY-Y1 receptor antagonist potency, dose response, cell-based (AID 1277). The class given is functional.

Active and inactive are the calls of the source. Bounds are passed on as bounds.

T6 sequence (P0DMV8 whole entry): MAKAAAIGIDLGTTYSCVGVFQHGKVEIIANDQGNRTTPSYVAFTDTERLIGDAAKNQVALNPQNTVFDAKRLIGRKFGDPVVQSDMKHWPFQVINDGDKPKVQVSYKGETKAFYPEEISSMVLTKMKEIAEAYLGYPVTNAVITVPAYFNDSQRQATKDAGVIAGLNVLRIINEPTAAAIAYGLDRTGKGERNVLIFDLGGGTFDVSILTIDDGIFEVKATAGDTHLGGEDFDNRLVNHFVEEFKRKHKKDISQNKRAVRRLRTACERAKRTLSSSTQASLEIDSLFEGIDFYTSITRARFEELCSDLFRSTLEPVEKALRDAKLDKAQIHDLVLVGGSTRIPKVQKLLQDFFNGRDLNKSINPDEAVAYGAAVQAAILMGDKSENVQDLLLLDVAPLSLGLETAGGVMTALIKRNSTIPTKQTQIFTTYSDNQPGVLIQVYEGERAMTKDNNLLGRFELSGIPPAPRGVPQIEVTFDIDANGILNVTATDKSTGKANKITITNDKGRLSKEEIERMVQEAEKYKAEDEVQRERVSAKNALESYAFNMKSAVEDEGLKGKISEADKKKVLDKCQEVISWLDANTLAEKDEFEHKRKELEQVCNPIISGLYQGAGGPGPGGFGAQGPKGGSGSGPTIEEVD
T2 sequence (Q92731 whole entry): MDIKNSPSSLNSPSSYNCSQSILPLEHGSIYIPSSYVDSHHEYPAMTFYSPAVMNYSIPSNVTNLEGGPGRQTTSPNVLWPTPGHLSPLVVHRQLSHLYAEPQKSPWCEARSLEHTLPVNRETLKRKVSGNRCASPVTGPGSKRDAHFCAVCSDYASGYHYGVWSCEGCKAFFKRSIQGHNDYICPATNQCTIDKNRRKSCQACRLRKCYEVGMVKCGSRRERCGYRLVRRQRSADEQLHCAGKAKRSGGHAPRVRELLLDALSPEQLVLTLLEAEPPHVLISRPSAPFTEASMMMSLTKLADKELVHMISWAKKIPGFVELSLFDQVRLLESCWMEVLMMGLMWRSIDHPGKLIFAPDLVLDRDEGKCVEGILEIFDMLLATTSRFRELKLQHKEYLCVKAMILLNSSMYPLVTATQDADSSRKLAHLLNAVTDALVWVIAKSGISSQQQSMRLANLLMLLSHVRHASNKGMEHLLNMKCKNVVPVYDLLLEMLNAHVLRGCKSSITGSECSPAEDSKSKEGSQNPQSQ
NS3, sequence (A3EZJ3 whole entry): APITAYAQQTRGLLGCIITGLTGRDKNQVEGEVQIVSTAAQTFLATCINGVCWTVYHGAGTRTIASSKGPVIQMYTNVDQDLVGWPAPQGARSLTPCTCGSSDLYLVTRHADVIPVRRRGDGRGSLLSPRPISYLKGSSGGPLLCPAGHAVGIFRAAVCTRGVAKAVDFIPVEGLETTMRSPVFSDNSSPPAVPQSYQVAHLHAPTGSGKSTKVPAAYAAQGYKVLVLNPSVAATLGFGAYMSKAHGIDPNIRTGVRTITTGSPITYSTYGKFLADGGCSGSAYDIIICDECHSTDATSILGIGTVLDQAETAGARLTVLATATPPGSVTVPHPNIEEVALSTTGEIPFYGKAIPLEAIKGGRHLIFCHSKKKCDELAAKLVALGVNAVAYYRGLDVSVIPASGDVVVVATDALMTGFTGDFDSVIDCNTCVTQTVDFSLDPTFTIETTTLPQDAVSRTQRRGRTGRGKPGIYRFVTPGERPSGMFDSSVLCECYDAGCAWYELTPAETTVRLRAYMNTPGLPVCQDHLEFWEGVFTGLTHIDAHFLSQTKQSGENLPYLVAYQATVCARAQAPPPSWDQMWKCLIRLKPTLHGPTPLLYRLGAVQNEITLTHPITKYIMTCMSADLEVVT
Lytic switch protein BZLF1, sequence (P03206 whole entry): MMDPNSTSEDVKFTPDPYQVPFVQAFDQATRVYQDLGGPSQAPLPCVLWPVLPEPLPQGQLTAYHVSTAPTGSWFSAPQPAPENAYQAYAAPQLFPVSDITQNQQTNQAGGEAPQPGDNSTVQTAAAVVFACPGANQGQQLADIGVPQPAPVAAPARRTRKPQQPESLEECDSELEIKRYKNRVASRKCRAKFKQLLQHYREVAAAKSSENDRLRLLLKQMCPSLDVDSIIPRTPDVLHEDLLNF
Serine/threonine-protein phosphatase PP1-alpha catalytic subunit, sequence (P62136 whole entry): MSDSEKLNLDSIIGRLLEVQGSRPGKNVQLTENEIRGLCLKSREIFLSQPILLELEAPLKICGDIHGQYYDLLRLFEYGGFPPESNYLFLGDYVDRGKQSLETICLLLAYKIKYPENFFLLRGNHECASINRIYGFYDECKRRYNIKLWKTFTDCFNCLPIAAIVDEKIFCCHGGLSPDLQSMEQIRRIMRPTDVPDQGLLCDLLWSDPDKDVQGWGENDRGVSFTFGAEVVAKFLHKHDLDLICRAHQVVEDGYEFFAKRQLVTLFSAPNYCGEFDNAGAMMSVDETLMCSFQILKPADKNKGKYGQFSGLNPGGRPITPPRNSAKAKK
Induced myeloid leukemia cell differentiation protein Mcl-1, sequence (Q07820 whole entry): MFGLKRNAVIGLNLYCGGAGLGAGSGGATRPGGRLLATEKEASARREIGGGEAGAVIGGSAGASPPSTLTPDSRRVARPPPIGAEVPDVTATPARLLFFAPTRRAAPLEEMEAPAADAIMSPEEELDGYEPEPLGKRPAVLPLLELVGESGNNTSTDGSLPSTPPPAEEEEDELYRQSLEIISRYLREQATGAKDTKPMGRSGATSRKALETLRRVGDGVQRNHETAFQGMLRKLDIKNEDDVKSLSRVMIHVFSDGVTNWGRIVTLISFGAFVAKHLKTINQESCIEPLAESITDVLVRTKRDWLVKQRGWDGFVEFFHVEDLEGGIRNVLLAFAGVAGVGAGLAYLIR
Serine/threonine-protein phosphatase, sequence (Q9BPW0 whole entry): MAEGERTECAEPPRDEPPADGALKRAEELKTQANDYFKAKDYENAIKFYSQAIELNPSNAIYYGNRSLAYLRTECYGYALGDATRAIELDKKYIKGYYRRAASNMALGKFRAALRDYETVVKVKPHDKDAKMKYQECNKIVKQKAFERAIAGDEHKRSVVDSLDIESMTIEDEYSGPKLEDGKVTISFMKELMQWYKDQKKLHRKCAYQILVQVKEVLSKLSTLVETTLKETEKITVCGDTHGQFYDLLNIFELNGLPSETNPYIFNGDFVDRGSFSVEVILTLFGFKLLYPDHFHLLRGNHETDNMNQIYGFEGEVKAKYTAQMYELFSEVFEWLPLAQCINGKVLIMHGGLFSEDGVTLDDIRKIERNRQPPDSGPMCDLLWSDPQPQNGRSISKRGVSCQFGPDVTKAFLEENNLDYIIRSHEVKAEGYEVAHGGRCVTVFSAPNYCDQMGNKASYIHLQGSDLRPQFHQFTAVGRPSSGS
Epstein-Barr nuclear antigen 1, sequence (P03211 whole entry): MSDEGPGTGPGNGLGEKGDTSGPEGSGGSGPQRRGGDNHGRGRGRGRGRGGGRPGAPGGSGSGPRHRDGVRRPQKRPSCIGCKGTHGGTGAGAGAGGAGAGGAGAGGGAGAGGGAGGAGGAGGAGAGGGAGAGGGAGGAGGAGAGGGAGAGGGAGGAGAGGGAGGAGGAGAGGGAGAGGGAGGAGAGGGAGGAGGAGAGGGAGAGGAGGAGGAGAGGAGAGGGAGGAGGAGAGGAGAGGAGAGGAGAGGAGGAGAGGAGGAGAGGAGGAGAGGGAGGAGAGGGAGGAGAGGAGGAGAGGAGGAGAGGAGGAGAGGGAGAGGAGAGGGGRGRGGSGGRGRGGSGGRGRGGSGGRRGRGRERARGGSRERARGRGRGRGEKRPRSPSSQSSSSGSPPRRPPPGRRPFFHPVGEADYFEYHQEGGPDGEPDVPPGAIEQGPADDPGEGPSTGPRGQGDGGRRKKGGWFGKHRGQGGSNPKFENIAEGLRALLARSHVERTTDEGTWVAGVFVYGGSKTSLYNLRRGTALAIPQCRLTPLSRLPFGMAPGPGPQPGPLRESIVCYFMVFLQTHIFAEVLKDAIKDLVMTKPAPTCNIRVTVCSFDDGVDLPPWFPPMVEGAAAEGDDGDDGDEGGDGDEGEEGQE

Broadly, the EC50 is the concentration needed to bring the measured effect to its halfway point. A word on the IC50: it is the midpoint of a concentration-inhibition curve. Take `O=S(=O)(Cc1cc(NCc2ccccc2)nc(-c2ccccn2)n1)c1ccccc1`: the EC50 in [1] is > 150 µM (not active); in test [3], > 150 µM (not active); in test [5], 21 µM (active). For the same compound, the IC50 in [2] was 7.88 µM (active); in test [4], > 67 µM (not active).

On to `C=CCSC1=N/C(=C\C=C\c2ccco2)C(=O)S1`, for which the IC50 is > 50 µM (not active) in test [6]; 10.3 µM (active) in test [7]; 11 µM (not active) in test [8]; > 50 µM (not active) in test [9]; 5.61 µM (active) in [10].

Take `Cc1cccc(N=C(S)N(CCN(C)C)Cc2cc3cc(C)cc(C)c3nc2O)c1`: the EC50 is 33.6 µM (active) in test [11] and 18.1 µM (active) in [12]. The IC50 is 14.3 µM (not active) in test [13] and 6.32 µM (active) in [14].

Turning to `N#Cc1ccc(N2Cc3ccccc3/C2=N/C(=O)Nc2ccc(Cl)cc2)cc1`, the IC50 is 8.14 µM (active) in test [15] and > 111 µM (not active) in test [16].

In the case of `Nc1nc2n(n1)C(c1ccco1)CC(c1ccc(Cl)cc1Cl)N2` (stereo not given), the IC50 in test [17] and in test [18] was > 100 µM (not active) each time.

Take `COc1ccccc1CN(Cc1cc2cc(C)ccc2nc1O)Cc1nnnn1Cc1ccco1`: the IC50 is > 35 µM (not active) in test [19] and 22.7 µM (not active) in [20].

These data come from ChEMBL document CHEMBL1201862, “PubChem BioAssay data set” (2004).
